Results on 32 compounds are retold here after US10894785B2, “Piperidine derivatives for use in the treatment of pancreatic cancer” (CENTRE HOSPITALIER UNIVERSITAIRE VAUDOIS CHUV, priority 2016, dated 2021).

For orientation: IC50 means the point on the concentration scale where inhibition reaches its midpoint. A lower IC50 goes with greater potency. One may read the Cmax as the highest concentration seen after dosing. In general, Tmax refers to the time at which the peak concentration occurs. As a reminder, the AUC(0-inf) is the area under the concentration-time curve extrapolated to infinity.

Data set [1] concerns pancreatic ductal adenocarcinoma (Panc-1). Description: Anti-tumor activity on Panc-1: cell viability by sulforhodamine or MTT assay. Format: cell-based. The conditions noted are these: Homo sapiens, Panc-1 cells, 96 hours treatment, 0.001-1000 nM. Here is the method: The compounds according to the present invention were evaluated for their anti-tumor activities on pancreatic ductal adenocarcinoma (Panc-1). To this end, 0.5×10^6 human malignant cells were treated with various concentrations (0.001-1000 nM) for 96 hours of FK866 or the compounds according to the present invention. Subsequently cell viability was determined using either sulforhodamine assays as described in Caffa I, et al. (Oncotarget. 2015 May 20; 6(14):11820-32) or MTT assays. Sulforhodamine B is a dye able that binds to cellular proteins. […] For MTT assays, human malignant cells were plated in triplicate on 96-well plates and treated as mentioned above. After 96 hours of incubation, 15 μL of dye solution was added to each well and cells were incubated for an additional 4 hours. Stop solution (100 μL/well) was added for 1 hour and the absorbance was read at 570 nm on a spectrophotometer. To confirm whether the cytotoxicity exerted by these compounds involves programmed cell death, drug-induced cell death was evaluated using annexin V and 7AAD double staining as described by the manufacturer for assessing apoptosis or autophagic-cell death using a Beckman Coulter Cytomics Gallios flow cytometer. Dead cells were identified as annexinV+ and/or 7AAD+. GraphPad Prism version 7.00 (GraphPad Software, San Diego, Calif.) was used for IC50 calculation.
For orientation: Tetrazolium dyes change colour on reduction, which living cells bring about.

Data set [2] can be described thus: Pharmacokinetics after intraperitoneal administration in female SCID mice (plasma, LC-MS/MS, non compartmental analysis). The note with it: 20 mg/kg IP. Format: in vivo. Here is the method: The pharmacokinetics parameters of FK866, FE1199, VAL22-2 and MPM07 were determined following intraperitoneal administration (IP) in female SCID mice.
• SCID (Severe Combined ImmunoDeficiency) mice female total 144 • 25 mM in DMSO (dimethylsulfoxyde) of each test drug • Saline solution (0.9%)
Test drugs were dissolved in saline solution at 20 mg/ml. All dosing solutions were controlled by HPLC (High-Performance Liquid Chromatography) analysis. Mouse weight is estimated around 20 g.
Three mice per time point were used in each group.
Blood samples were collected on citrate at 10 min, 30 min, 1 h, 2 h, 4 h, 6 h, 8 h and 24 hours after drug administration. Following centrifugation, resulting plasma was stored at […] pending bioanalysis. Samples were analyzed by LC-MS/MS (Liquid chromatography tandem-mass spectrometry); the lower limit of quantification achieved was between 3 and 12 nM depending on drug. Non compartmental pharmacokinetic analysis was performed on plasma concentration data.

In data set [1], `COc1ccc(C(=O)N2CCC(CCCCNC(=O)/C=C/c3cccnc3)CC2)c(OC)c1` [FEI-56, (E)-N-(4-(1-(2,4-Dimethoxybenzoyl)piperidin-4-yl)butyl)-3-(pyridin-3-yl)acrylamide] yielded an IC50 of 3 nM.

Consider `COc1cccc(OC)c1C(=O)N1CCC(CCCCNC(=O)/C=C/c2cccnc2)CC1` [FEI-58, (E)-N-(4-(1-(2,6-Dimethoxybenzoyl)piperidin-4-yl)butyl)-3-(pyridin-3-yl)acrylamide], for which the concentration for half-maximal inhibition (IC50) in data set [1] turned out to be 0.6 nM.

Compound `COc1cc(OC)c(C(=O)N2CCC(CCCCNC(=O)/C=C/c3cccnc3)CC2)c(OC)c1` [FEI-62, (E)-3-(Pyridin-3-yl)-N-(4-(1-(2,4,6-trimethoxybenzoyl)piperidin-4-yl)butyl)acrylamide] had a concentration for half-maximal inhibition (IC50) in data set [1] of 1 nM.

In data set [1], `COc1ccoc1C(=O)N1CCC(CCCCNC(=O)/C=C/c2cccnc2)CC1` [FEI-71, (E)-N-(4-(1-(3-Methoxyfuran-2-carbonyl)piperidin-4-yl)butyl)-3-(pyridin-3-yl)acrylamide] showed a 50% inhibitory concentration (IC50) of 7 nM.

In data set [1], `O=C(/C=C/c1cccnc1)NCCCCC1CCN(C(=O)c2ccno2)CC1` [FEI-74, (E)-N-(4-(1-(Isoxazole-5-carbonyl)piperidin-4-yl)butyl)-3-(pyridin-3-yl)acrylamide] showed an IC50 of 5 nM.

`COc1cc(C=O)cc(OC)c1C(=O)N1CCC(CCCCNC(=O)/C=C/c2cccnc2)CC1` [FEI-75, (E)-N-(4-(1-(4-Formyl-2,6-dimethoxybenzoyl)piperidin-4-yl)butyl)-3-(pyridin-3-yl)acrylamide] came in with an IC50 in data set [1] of 2 nM.

For the compound `O=C(/C=C/c1cccnc1)NC/C=C/CC1CCN(C(=O)c2ccccc2)CC1` [FEI-80, (E)-N-((E)-4-(1-Benzoylpiperidin-4-yl)but-2-en-1-yl)-3-(pyridin-3-yl)acrylamide], the half-inhibitory concentration (IC50) in data set [1] is 9 nM.

`COc1cccc(OC)c1C(=O)N1CCC(C/C=C/CNC(=O)/C=C/c2cccnc2)CC1` [FEI-81, (E)-N-((E)-4-(1-(2,6-Dimethoxybenzoyl)piperidin-4-yl)but-2-en-1-yl)-3-(pyridin-3-yl)acrylamide] showed a half-maximal inhibitory concentration (IC50) in data set [1] of 2.3 nM.

Turning to `COc1cc(OC)c(C(=O)N2CCC(C/C=C/CNC(=O)/C=C/c3cccnc3)CC2)c(OC)c1` [FEI-82, (E)-3-(Pyridin-3-yl)-N-((E)-4-(1-(2,4,6-trimethoxybenzoyl)piperidin-4-yl)but-2-en-1-yl)acrylamide], half-maximal inhibition in data set [1] (IC50) required 0.4 nM. This IC50 lies about 5.7-fold lower than the previous one.

As to `O=C(/C=C/c1cccnc1)NC/C=C/CC1CCN(C(=O)c2ccco2)CC1` [FEI-83, (E)-N-((E)-4-(1-(Furan-2-carbonyl)piperidin-4-yl)but-2-en-1-yl)-3-(pyridin-3-yl)acrylamide], the IC50 in data set [1] was determined as 15 nM.

Regarding `O=C(/C=C/c1cccnc1)NC/C=C/CC1CCN(C(=O)c2cccs2)CC1` [FEI-85, (E)-3-(Pyridin-3-yl)-N-((E)-4-(1-(thiophene-2-carbonyl)piperidin-4-yl)but-2-en-1-yl)acrylamide], it took 2 nM to reach half-maximal inhibition in data set [1] (IC50). Compared with the last compound, the IC50 is about 7.5-fold lower.

For the compound `N#C/N=C(\NCCCCC1CCN(C(=O)c2ccccc2)CC1)Nc1ccncc1` [FEI-154, (E)-1-(4-(1-Benzoylpiperidin-4-yl)butyl)-2-cyano-3-(pyridin-4-yl)guanidine], the IC50 in data set [1] was 3.9 nM.

The compound `N#C/N=C(\NCCCCC1CCN(C(=O)c2ccco2)CC1)Nc1ccncc1` [FEI-158, (E)-2-Cyano-1-(4-(1-(furan-2-carbonyl)piperidin-4-yl)butyl)-3-(pyridin-4-yl)guanidine] gave a 50% inhibitory concentration (IC50) in data set [1] of 6.8 nM.

The compound `N#C/N=C(\NCCCCC1CCN(C(=O)c2ccco2)CC1)Nc1ccc(F)nc1` [FEI-170, (E)-2-Cyano-1-(6-fluoropyridin-3-yl)-3-(4-(1-(furan-2-carbonyl)piperidin-4-yl)butyl)guanidine] registered a half-inhibitory concentration (IC50) in data set [1] of 18 nM.

For the compound `N#C/N=C(\NCCCCC1CCN(C(=O)c2cccs2)CC1)Nc1ccc(F)nc1` [FEI-171, (E)-2-Cyano-1-(6-fluoropyridin-3-yl)-3-(4-(1-(thiophene-2-carbonyl)piperidin-4-yl)butyl)guanidine], the concentration for half-maximal inhibition (IC50) in data set [1] is 12 nM.

With `N#C/N=C(\NCCCCCC1CCN(C(=O)c2ccccc2)CC1)Nc1ccncc1` [FEI-190, (E)-1-(5-(1-Benzoylpiperidin-4-yl)pentyl)-2-cyano-3-(pyridin-4-yl)guanidine], in data set [1], half-maximal inhibition (IC50) required 2.6 nM.

Consider `N#C/N=C(\NCCCCCC1CCN(C(=O)c2ccco2)CC1)Nc1ccncc1` [FEI-191, (E)-2-Cyano-1-(5-(1-(furan-2-carbonyl)piperidin-4-yl)pentyl)-3-(pyridin-4-yl)guanidine], for which the IC50 in data set [1] turned out to be 1.9 nM.

In data set [1], `N#C/N=C(\NCCCCCC1CCN(C(=O)c2cccs2)CC1)Nc1ccncc1` [FEI-192, (E)-2-Cyano-1-(pyridin-4-yl)-3-(5-(1-(thiophene-2-carbonyl)piperidin-4-yl)pentyl)guanidine] displayed an IC50 of 2.3 nM.

In data set [1], `COc1cccc(OC)c1C(=O)N1CCC(CCCCCN/C(=N\C#N)Nc2ccncc2)CC1` [FEI-193, (E)-2-Cyano-1-(5-(1-(2,6-dimethoxybenzoyl)piperidin-4-yl)pentyl)-3-(pyridin-4-yl)guanidine] yielded a half-maximal inhibitory concentration (IC50) of 4.8 nM.

`N#C/N=C(\NC/C=C/CCC1CCN(C(=O)c2ccccc2)CC1)Nc1cccnc1` [FEI-194, (E)-1-((E)-5-(1-Benzoylpiperidin-4-yl)pent-2-en-1-yl)-2-cyano-3-(pyridin-3-yl)guanidine]: half-maximal inhibition in data set [1] (IC50) was put at 5 nM.

In the case of `N#C/N=C(\NC/C=C/CCC1CCN(C(=O)c2ccco2)CC1)Nc1cccnc1` [FEI-195, (E)-2-Cyano-1-((E)-5-(1-(furan-2-carbonyl)piperidin-4-yl)pent-2-en-1-yl)-3-(pyridin-3-yl)guanidine], in data set [1], the IC50 was determined as 4.6 nM.

For `N#C/N=C(\NC/C=C/CCC1CCN(C(=O)c2cccs2)CC1)Nc1cccnc1` [FEI-196, (E)-2-Cyano-1-(pyridin-3-yl)-3-((E)-5-(1-(thiophene-2-carbonyl)piperidin-4-yl)pent-2-en-1-yl)guanidine], it took 5.9 nM to reach half-maximal inhibition in data set [1] (IC50).

In data set [1], `N#C/N=C(\NC/C=C/CCC1CCN(C(=O)c2ccccc2)CC1)Nc1ccncc1` [FEI-198, (E)-1-((E)-5-(1-Benzoylpiperidin-4-yl)pent-2-en-1-yl)-2-cyano-3-(pyridin-4-yl)guanidine] returned an IC50 of 5 nM.

`N#C/N=C(\NC/C=C/CCC1CCN(C(=O)c2cccs2)CC1)Nc1ccncc1` [FEI-200, (E)-2-Cyano-1-(pyridin-4-yl)-3-((E)-5-(1-(thiophene-2-carbonyl)piperidin-4-yl)pent-2-en-1-yl)guanidine]: half-maximal inhibition in data set [1] (IC50) required 2.4 nM.

In data set [1], `COc1cccc(OC)c1C(=O)N1CCC(CCCCNC(=O)Nc2ccncc2)CC1` [FEI-209, 1-(4-(1-(2,6-Dimethoxybenzoyl)piperidin-4-yl)butyl)-3-(pyridin-4-yl)urea] came in with a half-maximal inhibitory concentration (IC50) of 8.2 nM.

Consider `COc1cccc(OC)c1C(=O)N1CCC(CCCCNC(=O)/C=C/c2cccnc2F)CC1` [MPM-08], for which, in data set [1], half-maximal inhibition (IC50) required 6 nM.

In the case of `COc1cccc(OC)c1C(=O)N1CCC(CCCCNC(=O)/C=C/c2ccc(F)nc2F)CC1` [MPM-09], in data set [1], inhibition was half-maximal at 2 nM (IC50).

As to `COc1cc(C=O)cc(OC)c1C(=O)N1CCC(CCCCNC(=O)/C=C/c2cccnc2F)CC1` [MPM-13], the half-inhibitory concentration (IC50) in data set [1] came out at 15.5 nM.

In turn, `CCCn1cc(C=O)c(C(=O)N2CCC(CCCCNC(=O)/C=C/c3cccnc3F)CC2)c1C` [MPM-14, (E)-3-(2-fluoropyridin-3-yl)-N-(4-(1-(4-formyl-2-methyl-1-propyl-1H-pyrrole-3-carbonyl)piperidin-4-yl)butyl)acrylamide] came in with an IC50 in data set [1] of 7.54 nM. This IC50 is about 2.1-fold lower than that of the compound before.

Take `O=C(/C=C/c1ccc(F)nc1F)NCCCCC1CCN(C(=O)c2ccccc2)CC1` [PER-201, (E)-N-(4-(1-benzoylpiperidin-4-yl)butyl)-3-(2,6-difluoropyridin-3-yl)acrylamide]: half-maximal inhibition in data set [1] (IC50) was put at 14 nM.

For `O=C(/C=C/c1ccc(F)nc1F)NCCCCC1CCN(C(=O)c2cccs2)CC1` [PER-202], in data set [1], the midpoint of inhibition, the IC50, lay at 5 nM.

For `O=C(/C=C/c1cccnc1F)NCCCCC1CCN(C(=O)c2ccccc2)CC1` [VAL22-2, (E)-N-(4-(1-benzoylpiperidin-4-yl)butyl)-3-(2-fluoropyridin-3-yl)acrylamide], in data set [2] (CL calculated as dose/AUC), the CL is reported as 23.6 mL/h. Moreover, in data set [2] (plasma, relative to AUC0-inf), the “Percentage of extrapolated AUC from T6 h to infinity” value is on record as 1.4%. The T1/2α in data set [2] (plasma, t½α (0 -> 6 h)) turned out to be 27.6 min. For the same compound, the T1/2β in data set [2] (plasma, t½β (6 -> 24 h)) is 515 min. The “half-lives in the second phase (6 h→24 h) compared with FK866” value in data set [2] (plasma, versus FK866) is “improved and longer half-lives”. For the same compound, in data set [2] (mouse, plasma), the peak level (Cmax) was 16900 ng/mL and the Tmax came to 10 min. The AUC(0-inf) in data set [2] (mouse, plasma, log-trapezoidal rule, extrapolated to infinity) is 8470 ng·h/mL. Further, the AUC(0-t) in data set [2] (mouse, plasma, read-out: AUC0-8 h) is 8400 ng·h/mL.
